The text below walks through data of US9539221B2, “Method of treating airway diseases with β-adrenergic inverse agonists” (EGB ADVISORS, LLC, priority 2003, dated 2017).

Test [1] relates to asthmatic mice. The settings on record: same mouse asthma model, Callaerts-Vegh et al. 2004, cited from earlier work.
For test [2], the system named is β2-adrenergic receptor. Briefly: Immunohistochemistry of β2-adrenergic receptor levels in lung sections. Format: in vivo, mice. The settings on record: chronic treatment versus untreated animals; epifluorescent microscopy.
Procedure: The mice were sacrificed and the lungs excised. […] Lungs were embedded in OCT and 12-μm sections cut with a Tissue-Tek II cryostat. […] After 3 washes in PBS, the slides were blocked with 5% milk in PBS for 1 h, and then incubated overnight with anti-β2-adrenergic receptor antibody (1:200, Santa Cruz Biotechnology) in blocking solution. Slides were washed in PBS and incubated with secondary antibody (1:200, Cy3 goat anti-rabbit, 16 h at 4° C.). […] After washing with PBS, coverslips were mounted and viewed by epifluorescent microscopy.
A further test relates to Phospholipase C (PLC-β1). Briefly: Ratio of phospholipase C to actin by immunoblotting in cultured tracheal smooth muscle cells of treated mice. Format: cell-based. The settings on record: asthmatic mice, chronic nadolol high dose treatment. An excerpt:
Cultured tracheal smooth muscle cells were obtained from mice exposed to the following treatments: NS/NC=nonasthmatic, non-challenged mice; S/C=asthmatic mice; Sal.Ac=asthmatic mice, acute salbutamol treatment; Sal.Ch=asthmatic mice, chronic salbutamol treatment; Nad.Ac=asthmatic mice, acute nadolol high dose treatment; and Nad.Ch=asthmatic mice, chronic nadolol high dose treatment.
After airway function experiments, the trachea were surgically removed from anesthetized mice that had been treated with drugs or vehicle. The trachea was minced and the cells plated and grown in culture. The smooth muscle cells grow faster and take over the culture dish. The cells were grown in medium which contained the drugs used in the treatment or vehicle controls. Phospholipase C (PLC-β1) was determined by immunoblotting with an antibody specific for the enzyme. Actin was used as a loading control and the amount of PLC-β1 was expressed as a ratio to actin.
The phospholipase C protein level was measured in these cultured cells and compared with the level of the structural protein actin as a baseline. The enzyme phospholipase C plays a key role in the pathway leading to asthmatic symptoms, as it cleaves a phosphodiester bond in membrane phospholipids, resulting in the formation of a 1,2-diglyceride. […]
(In western blotting, separated proteins are transferred to a membrane and probed.)

Test [3] deals with asthmatic mice. Kind of test: Airway resistance (Raw) response to methacholine provocation in murine model of asthma (forced oscillation). Type of test: in vivo, Balb/cJ mice. The procedure:
Balb/cJ mice aged 6 weeks (Jackson Animal Laboratory, Bar Harbor, Me.) were housed under specific pathogen-free conditions and fed a chicken ovalbumin-free diet. The Animal Research Ethics Boards of both the University of Houston and the Baylor College of Medicine approved all experiments reported here. […] Mice were sensitized with subcutaneous injection of 25 μg of ovalbumin adsorbed to aluminum hydroxide on protocol days 2, 9, and 16. Subsequently, mice were given 50 μL of saline solution containing 25 μg of ovalbumin intranasally, on a daily basis, from protocol days 23 through 27. A group of ovalbumin-sensitized saline-challenged mice serves as controls for systemic sensitization and respiratory challenges with ovalbumin. Prior to intranasal administrations, mice were sedated with halothane vapor.
To examine the effects of duration of β-adrenergic ligand therapy on the phenotype of the murine model of asthma, the experimental drugs were administered either acutely or chronically to different groups of asthmatic mice.
Asthmatic mice on acute therapy were given a single intravenous bolus infusion of either β-adrenergic drug or normal saline on protocol day 28, 15 minutes before airway responsiveness to methacholine was determined. […] Asthmatic mice on chronic therapy were treated with the β-adrenergic drug during protocol days 1 to 28. […] These concentrations were chosen based on those producing therapeutic effects in mice in previously published studies. The non-asthmatic mice were fed normal chow.
On protocol day 28, mice were anesthetized, tracheotomized, and connected to a computer-controlled small animal ventilator (Flexivent, Scientific Respiratory Equipment, Inc., Montreal, Canada). Airway resistance (Raw) was measured using the forced oscillation technique. The cellular composition of bronchoalveolar lavage fluid (BALF) was also determined.
To induce airway constriction, a solution containing 150 μg/mL of acetyl-α-methylcholine chloride (methacholine) (Sigma Chemical, St. Louis, Mo.) was infused intravenously at constant rates using a syringe infusion pump (Raze Scientific Instruments, Stanford, Conn.). […] Each methacholine dose was administered for 3 to 5 minutes, during which data were sampled at 1-minute intervals and then averaged.
The complex input impedance of the respiratory system was computed and the value of the real part of respiratory system impedance at 19.75 Hz was taken to reflect the magnitude of airway resistance (Raw). To examine the degree of airway responsiveness of each animal, the values for Raw as a function of methacholine doses were plotted. The largest value for Raw achieved in response to methacholine stimulation was referred to as Rawpeak. For mice that achieved a plateau in the methacholine dose-Raw response curve, the ED50 was calculated by linear interpolation using the GraphPad Prism4 (GraphPad Software, Inc.). […] The Bonferroni test was used to examine the statistical differences between experimental groups. The effects of acute drug treatments on baseline respiratory system mechanics were assessed using a two-tailed paired t-test. A value of P<0.05 was considered significant.
For these experiments, salbutamol was used for chronic administration at 0.5 mg/kg/day with a minipump and for acute administration at 0.15 mg/kg by i.v. bolus 15 minutes prior to challenge. Alprenolol was used at a high dose of 7200 ppm in chow or at a low dose of 720 ppm in chow. Carvedilol was used at a high dose of 2400 ppm in chow or at a low dose of 720 ppm in chow.

The subject of test [4] is sensitized and allergen-challenged mice. Kind of test: Acute nadolol with aminophylline, methacholine-induced bronchoconstriction. Format: in vivo. The following applies: nadolol 0.72 mg/kg i.p. 15 minutes prior to methacholine challenge. The procedure:
Mice were sensitized to the allergen ovalbumin as described in Example 1. […] At time point 1 (time=−10 min) baseline airway resistance of the mice was determined. At time point 2 (time=−5 min) methacholine was infused into mice to reach their EC70.

The target of test [5] is β2-adrenergic receptor (Mus musculus, UniProt P18762). Kind of test: β-adrenergic receptor density in lung membranes of treated asthmatic mice by ICYP radioligand binding. Format: in vivo. The method, then: (§1) β2-adrenergic receptor numbers were measured in asthmatic mice as follows. […] Mice were sacrificed and lung membranes were isolated as follows. Frozen lung tissue was homogenized in an ice-cold buffer containing 0.32 M sucrose and 25 mM Tris (pH 7.4) using a polytron (Pro 200, Pro Scientific, Inc.). The homogenate was centrifuged at 1000×g for 10 min at 4° C. The resulting supernatant was centrifuged at 40,000×g for 20 min at 4° C. The pellet was suspended in an ice-cold 25 mM Tris-HCl buffer (pH 7.4) and centrifuged at 40,000×g for 20 min at 4° C. The final pellet was suspended in 200 μL of 25 mM Tris-HCl (pH 7.4); membrane protein concentration was determined by BCA protein assay kit. […] The incubation was done at 37° C. for 2 h and terminated by rapid vacuum filtration through glass fiber filters. The filters were washed three times with 250 μL of cold wash buffer (25 mM Tris-HCl, pH 7.4) and the radioactivity determined in a counter. […] Receptor densities are expressed as femtomoles of sites per milligram of protein. Bmax is determined by nonlinear regression of the saturation binding curves.
β2-adrenergic receptor (Mus musculus, UniProt P18762), sequence (P18762 whole entry): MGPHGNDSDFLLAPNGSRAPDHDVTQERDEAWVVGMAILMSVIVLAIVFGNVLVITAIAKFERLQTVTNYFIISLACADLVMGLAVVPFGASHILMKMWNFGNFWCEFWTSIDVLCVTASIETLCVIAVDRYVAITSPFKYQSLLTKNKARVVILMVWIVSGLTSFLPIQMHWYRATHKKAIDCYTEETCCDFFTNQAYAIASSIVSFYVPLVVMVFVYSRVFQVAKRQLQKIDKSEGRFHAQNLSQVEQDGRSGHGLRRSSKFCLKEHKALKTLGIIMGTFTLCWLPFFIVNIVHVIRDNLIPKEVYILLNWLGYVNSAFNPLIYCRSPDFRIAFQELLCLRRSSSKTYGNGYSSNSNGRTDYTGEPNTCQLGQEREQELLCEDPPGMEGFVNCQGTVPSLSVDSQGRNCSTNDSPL

The subject of test [6] is β2-adrenergic receptor. The test is described as above. Type of test: in vivo. The settings on record: 2 days of administration. The method, then:
as §1

“Also recorded” adds a separate entry of the source. Like-named read-outs stand apart in the source and are kept apart here.

With `CC(C)(C)NCC(O)COc1cccc2c1CC(O)C(O)C2` (centres unmarked) [Nadolol, nadolol], the airway hyperresponsiveness entry in the test on asthmatic mice [1] (administered acutely) is reported as “worsens airway hyperresponsiveness”; in the test on asthmatic mice [1] (administered chronically), “prevents airway hyperresponsiveness”. In addition, the “labeling with anti-β2-adrenergic receptor antibodies in lungs” value in the test on β2-adrenergic receptor [2] was “considerably more intense; also recorded: increase in β-adrenergic receptor density”. Further, the “ratio of phospholipase C to actin” value in the test on Phospholipase C (PLC-β1) was “significantly decreases the activity of phospholipase C”. Besides, the “airway resistance (Raw)” value in the test with asthmatic mice [3] (1 ppm in chow) is “identical to the untreated mice”. The “airway responsiveness to methacholine provocation (airway resistance, Raw)” value with asthmatic mice [3] (asthmatic mice, chronic: 28 days (chow; salbutamol by osmotic minipump)) is “produced a decrease in airway responsiveness, which was more pronounced than that caused by carvedilol treatment; also recorded: reduced the responsiveness of asthmatic mice to methacholine provocation”. In addition, the “protection from airway hyperresponsiveness” value in the test on asthmatic mice [3] (chronic administration, high and low dose in chow (Example 6)) is recorded as “providing protection from airway hyperresponsiveness”. In addition, in test [4], the baseline airway resistance result is “same baseline airway resistance as non-drug treated sensitized and allergen-challenged mice”. At β2-adrenergic receptor [5] (15 Minutes drug treatment, lung membranes of asthmatic mice, mean±SEM), the “Bmax (β-adrenergic receptor density)” value is reported as 181.9 ± 48.28 femtomoles of sites per milligram of protein. Also, the “βmax (β-adrenergic receptor density)” value on β2-adrenergic receptor [5] (28 Days drug treatment, lung membranes of asthmatic mice, mean±SEM) is reported as 785.5 ± 154.8 femtomoles of sites per milligram of protein. The “Increased β2AR density” value on β2-adrenergic receptor [5] (28 days of administration) is “showed an increase in receptor density”; with β2-adrenergic receptor [6], “yes”; in the test on β2-adrenergic receptor [6] (listed as nadolol), “showed an increase in receptor density”. Further, the “increase of the level of β2-adrenergic receptors over the non-treated mice” value at β2-adrenergic receptor [5] (chronic administration, versus untreated methacholine-challenged asthmatic mice) was “nearly eightfold increase”.
